{
  "source": "ChEMBL document CHEMBL5661943",
  "about": "“ASAP - In vitro antiviral effect” (2024)",
  "key": {"Zika virus [1]": {"test_system": "Zika virus", "test": "EC50 is reported via analysis of immunofluorescence staining. The assay has been performed by Icahn School of Medicine at Mount Sinai.", "assay_type": "functional, organism-based, Chlorocebus sabaeus, VeroE6/TMPRSS2", "conditions": "Baseline response 0 %, Maximum response 100 %, P-gp concentration 2 uM, P-gp inhibitor Elacidar"}, "Zika virus [2]": {"test_system": "Zika virus", "test": "(§1) Functional CPE-based assay to measure dose dependent changes in antiviral-drug inhibitory efficacy against Zika virus MR766 in Vero E6 miRFP670 cells. Cells are treated with antiviral candidates that are serially diluted. EC50 is reported via analysis of MTS assay as a readout of CPE. The assay has been performed by KU Leuven.", "assay_type": "organism-based, Chlorocebus sabaeus, Vero C1008", "conditions": "Zika virus"}, "Zika virus [3]": {"test_system": "Zika virus", "test": "as §1, with “cells (cotreated with P-gp inhibitor, CP100356).” for “cells.”", "assay_type": "organism-based, Chlorocebus sabaeus, Vero C1008", "conditions": "Zika virus, Vero C1008"}, "Zika virus [4]": {"test_system": "Zika virus", "test": "(§2) Functional immunofluorescence assay to measure dose dependent changes in antiviral-drug inhibitory efficacy against Zika virus PRVABC59 in Vero E6/TMPRSS2 cells. Cells are treated with antiviral candidates that are serially diluted, following infection, cells are fixed. EC50 is reported via analysis of immunofluorescence staining. The assay has been performed by Icahn School of Medicine at Mount Sinai.", "assay_type": "organism-based, Chlorocebus sabaeus", "conditions": "VeroE6/TMPRSS2"}, "dengue virus type 2 [5]": {"test_system": "dengue virus type 2", "test": "as §1, with “Dengue” for “Zika”, “type 2 New Guinea C” for “MR766”, “Huh7” for “Vero E6 miRFP670”, “MTT/MTS” for “MTS”, “National Institute of Allergy and Infectious Diseases.” for “KU Leuven.”", "assay_type": "organism-based, Homo sapiens", "conditions": "Huh-7"}, "dengue virus type 2 [6]": {"test_system": "dengue virus type 2", "test": "as §2, with “Dengue” for “Zika”, “type 2 Thailand/16681/84” for “PRVABC59”, “cells (cotreated with P-gp inhibitor, Elacridar).” for “cells.”", "assay_type": "organism-based, Chlorocebus sabaeus, VeroE6/TMPRSS2", "conditions": "for EC90: P-gp concentration 2 uM, P-gp inhibitor Elacidar"}, "dengue virus type 2 [7]": {"test_system": "dengue virus type 2", "test": "as §2, with “Dengue” for “Zika”, “type 2 Thailand/16681/84” for “PRVABC59”", "assay_type": "organism-based, Chlorocebus sabaeus"}, "dengue virus type 2 [8]": {"test_system": "dengue virus type 2", "test": "Functional assay to measure dose dependent changes in antiviral-drug inhibitory efficacy against Dengue virus type 2 New Guinea C in Vero E6 miRFP670 cells (cotreated with P-gp inhibitor, CP100356). Cells are treated with antiviral candidates that are serially diluted, following infection, cells are fixed. EC50 is reported via analysis of fluorescence intensity using high-content imager. The …", "assay_type": "organism-based, Chlorocebus sabaeus, Vero C1008", "conditions": "for EC90: P-gp concentration 500 nM, P-gp inhibitor CP100356"}},
  "note": "pEC50: −log10 of the molar value. “And” between values parts separate entries of the source, which are not always exact repeats. Equal entries are not always repeated.",
  "data": [
    {"compound": "COc1cc(N[C@@H](C(=O)c2c[nH]c3ccc(OC(F)(F)F)cc23)c2ccc(Cl)cc2OC)cc(S(C)(=O)=O)c1", "values": [
      {"measurement": "EC90", "setting": "Zika virus [1]; EC90 CI (lower) 0.002 uM, EC90 CI (upper) 0.172 uM, Hill slope -0.792, Maximum measured 161.955 %, Minimum measured 5.205 %, R squared 0.677", "value": 4830, "unit": "nM"},
      {"measurement": "EC90", "setting": "Zika virus [1]; EC90 CI (lower) 0.029 uM, EC90 CI (upper) 0.11 uM, Hill slope -0.824, Maximum measured 111.518 %, Minimum measured 7.6 %, R squared 0.806", "value": "> 10000", "unit": "nM"},
      {"measurement": "EC90", "setting": "Zika virus [1]; EC90 CI (lower) 0.389 uM, EC90 CI (upper) 1.092 uM, Hill slope -2.761, Maximum measured 123.481 %, Minimum measured 14.219 %, R squared 0.888", "value": 3200, "unit": "nM"},
      {"measurement": "EC90", "setting": "Zika virus [1]; Hill slope -12.116, Maximum measured 127.26 %, Minimum measured 45.283 %, R squared 0.53", "value": "> 3330", "unit": "nM"},
      {"measurement": "EC90", "setting": "Zika virus [1]; Hill slope -12.74, Maximum measured 124.12 %, Minimum measured 2.277 %, R squared 0.501", "value": 3790, "unit": "nM"},
      {"measurement": "EC90", "setting": "Zika virus [1]; Hill slope -15.757, Maximum measured 117.305 %, Minimum measured 4.138 %, R squared 0.906", "value": 1100, "unit": "nM"},
      {"measurement": "EC90", "setting": "Zika virus [1]; Hill slope -17.776, Maximum measured 116.903 %, Minimum measured 2.275 %, R squared 0.837", "value": 3170, "unit": "nM"},
      {"measurement": "EC90", "setting": "Zika virus [1]; Hill slope -18.67, Maximum measured 119.05 %, Minimum measured 1.241 %, R squared 0.846", "value": 3280, "unit": "nM"},
      {"measurement": "EC90", "setting": "Zika virus [2]; Vero C1008, Baseline response 0 %, Hill slope 9.978, Maximum measured 3.488 %, Maximum response 100 %, Minimum measured -3.611 %, R squared 0.038", "value": "> 50000", "unit": "nM"},
      {"measurement": "EC90", "setting": "Zika virus [2]; Vero C1008, Baseline response 0 %, Hill slope 52.791, Maximum measured 104.354 %, Maximum response 100 %, Minimum measured 0.394 %, R squared 0.996", "value": 452, "unit": "nM"},
      {"measurement": "EC90", "setting": "Zika virus [2]; Vero C1008, Baseline response 0 %, Hill slope -0.752, Maximum measured 14.519 %, Maximum response 100 %, Minimum measured -4.788 %, R squared 0.067", "value": "< 391", "unit": "nM"},
      {"measurement": "EC90", "setting": "Zika virus [2]; Vero C1008, Baseline response 0 %, Hill slope -0.757, Maximum measured 74.834 %, Maximum response 100 %, Minimum measured -5.889 %, R squared 0.129", "value": "< 391", "unit": "nM"},
      {"measurement": "EC90", "setting": "Zika virus [2]; Vero C1008, Baseline response 0 %, Hill slope -0.835, Maximum measured 99.922 %, Maximum response 100 %, Minimum measured -10.847 %, R squared 0.106", "value": "< 391", "unit": "nM"},
      {"measurement": "EC90", "setting": "Zika virus [2]; Vero C1008, Maximum measured 8.337 %, Minimum measured -6.427 %", "value": "> 50000", "unit": "nM"},
      {"measurement": "EC90", "setting": "Zika virus [2]; Vero C1008, Baseline response 0 %, EC90 CI (lower) 10.077 uM, EC90 CI (upper) 13.839 uM, Hill slope 6.588, Maximum measured 92.835 %, Maximum response 100 %, Minimum measured -3.07 %, R squared 0.987", "value": 11800, "unit": "nM"},
      {"measurement": "pEC50", "setting": "Zika virus [3]", "value": 6.14},
      {"measurement": "EC90", "setting": "Zika virus [3]; Baseline response 0 %, Hill slope 17.55, Maximum measured 78.36 %, Maximum response 100 %, Minimum measured -4.751 %, P-gp concentration 500 nM, R squared 0.965, P-gp inhibitor CP100356", "value": "> 781", "unit": "nM"},
      {"measurement": "pEC50", "setting": "Zika virus [4]", "value": 6.26},
      {"measurement": "EC90", "setting": "Zika virus [4]", "value": 2790, "unit": "nM"},
      {"measurement": "pEC50", "setting": "dengue virus type 2 [5]", "value": "> 8.00"},
      {"measurement": "EC90", "setting": "dengue virus type 2 [6]; Baseline response 0 %, EC90 CI (lower) 0.626 uM, EC90 CI (upper) 1511.53 uM, Hill slope 3.662, Maximum measured 12.805 %, Maximum response 100 %, Minimum measured 0.049 %, R squared 0.652", "value": 9.27, "unit": "µM"},
      {"measurement": "EC90", "setting": "dengue virus type 2 [6]; Baseline response 0 %, EC90 CI (lower) […] uM, EC90 CI (upper) […] uM, Hill slope -1.863, Maximum measured 115.571 %, Maximum response 100 %, Minimum measured 6.648 %, R squared 0.785", "value": 0.061, "unit": "µM"},
      {"measurement": "EC90", "setting": "dengue virus type 2 [6]; Baseline response 0 %, Hill slope 1.613, Maximum measured 7.031 %, Maximum response 100 %, Minimum measured 0.609 %, R squared 0.305", "value": "< 0.005", "unit": "µM"},
      {"measurement": "EC90", "setting": "dengue virus type 2 [6]; Baseline response 0 %, Hill slope 2.619, Maximum measured 1.603 %, Maximum response 100 %, Minimum measured 0.015 %, R squared 0.655", "value": "< 0.005", "unit": "µM"},
      {"measurement": "EC90", "setting": "dengue virus type 2 [6]; Baseline response 0 %, Hill slope 2.624, Maximum measured 9.128 %, Maximum response 100 %, Minimum measured 0.482 %, R squared 0.941", "value": "< 0.005", "unit": "µM"},
      {"measurement": "EC90", "setting": "dengue virus type 2 [6]; Baseline response 0 %, Hill slope -0.067, Maximum measured 1.374 %, Maximum response 100 %, Minimum measured 0.665 %, R squared 0.06", "value": "< 0.005", "unit": "µM"},
      {"measurement": "EC90", "setting": "dengue virus type 2 [6]; Baseline response 0 %, Hill slope -0.101, Maximum measured 7.568 %, Maximum response 100 %, Minimum measured 3.136 %, R squared 0.228", "value": "< 0.005", "unit": "µM"},
      {"measurement": "EC90", "setting": "dengue virus type 2 [6]; Dengue virus, VeroE6/TMPRSS2, Maximum measured 1.671 %, Minimum measured 0.643 %", "value": "< 0.005", "unit": "µM"},
      {"measurement": "pEC50", "setting": "dengue virus type 2 [6]; veroe6/tmprss2", "value": "> 8.30 and 7.72"},
      {"measurement": "pEC50", "setting": "dengue virus type 2 [7]; VeroE6/TMPRSS2", "value": "> 8.30"},
      {"measurement": "EC90", "setting": "dengue virus type 2 [7]; VeroE6/TMPRSS2, Baseline response 0 %, Hill slope -0.076, Maximum measured 4.343 %, Maximum response 100 %, Minimum measured 1.659 %, R squared 0.062", "value": "< 5", "unit": "nM"},
      {"measurement": "EC90", "setting": "dengue virus type 2 [8]; Baseline response 0 %, Hill slope 0.131, Maximum measured 1.754 %, Maximum response 100 %, Minimum measured 0.009 %, R squared 0.032", "value": "< 391", "unit": "nM"},
      {"measurement": "EC90", "setting": "dengue virus type 2 [8]; Baseline response 0 %, Hill slope 0.182, Maximum measured 0.608 %, Maximum response 100 %, Minimum measured 0.03 %, R squared 0.035", "value": "< 391", "unit": "nM"},
      {"measurement": "EC90", "setting": "dengue virus type 2 [8]; Baseline response 0 %, Hill slope 0.299, Maximum measured 0.369 %, Maximum response 100 %, Minimum measured 0.02 %, R squared 0.601", "value": "< 391", "unit": "nM"},
      {"measurement": "EC90", "setting": "dengue virus type 2 [8]; Baseline response 0 %, Hill slope 0.306, Maximum measured 1.238 %, Maximum response 100 %, Minimum measured 0.01 %, R squared 0.111", "value": "< 391", "unit": "nM"},
      {"measurement": "EC90", "setting": "dengue virus type 2 [8]; Baseline response 0 %, Hill slope 1.135, Maximum measured 0.49 %, Maximum response 100 %, Minimum measured 0.132 %, R squared 0.538", "value": "< 391", "unit": "nM"},
      {"measurement": "pEC50", "setting": "dengue virus type 2 [8]; Dengue virus, Vero C1008", "value": "> 6.41"},
      {"measurement": "EC90", "setting": "dengue virus type 2 [8]; Dengue virus, Vero C1008, Maximum measured 0.33 %, Minimum measured 0.072 %", "value": "< 391", "unit": "nM"},
      {"measurement": "EC90", "setting": "dengue virus type 2 [8]; Dengue virus, Vero C1008, Baseline response 0 %, Hill slope 0.447, Maximum measured 0.846 %, Maximum response 100 %, Minimum measured 0.033 %, R squared 0.302", "value": "< 391", "unit": "nM"}
    ]}
  ]
}
